# Results taken from patent publication US20230235378A1, “LZHEIMER'S DISEASE-SPECIFIC ALTERATIONS OF PROTEIN KINASE C EPSILON (PKC-EPSILON PROTEIN LEVELS” (WEST VIRGINIA UNIVERSITY BOARD OF GOVERNORS ON BEHALF OF …, priority 2010, published 2023).
# Legend:
# PKCε = molecular target: T1, PKCε (Homo sapiens, UniProt Q02156); test: Protein kinase C assay with recombinant PKC epsilon isoform ([γ32P]ATP, histones); format: biochemical; conditions: lowest concentration tested (10 nM)
# T1 construct: purchased Calbiochem (San Diego, Calif.)
# T1 sequence (Q02156 1-737): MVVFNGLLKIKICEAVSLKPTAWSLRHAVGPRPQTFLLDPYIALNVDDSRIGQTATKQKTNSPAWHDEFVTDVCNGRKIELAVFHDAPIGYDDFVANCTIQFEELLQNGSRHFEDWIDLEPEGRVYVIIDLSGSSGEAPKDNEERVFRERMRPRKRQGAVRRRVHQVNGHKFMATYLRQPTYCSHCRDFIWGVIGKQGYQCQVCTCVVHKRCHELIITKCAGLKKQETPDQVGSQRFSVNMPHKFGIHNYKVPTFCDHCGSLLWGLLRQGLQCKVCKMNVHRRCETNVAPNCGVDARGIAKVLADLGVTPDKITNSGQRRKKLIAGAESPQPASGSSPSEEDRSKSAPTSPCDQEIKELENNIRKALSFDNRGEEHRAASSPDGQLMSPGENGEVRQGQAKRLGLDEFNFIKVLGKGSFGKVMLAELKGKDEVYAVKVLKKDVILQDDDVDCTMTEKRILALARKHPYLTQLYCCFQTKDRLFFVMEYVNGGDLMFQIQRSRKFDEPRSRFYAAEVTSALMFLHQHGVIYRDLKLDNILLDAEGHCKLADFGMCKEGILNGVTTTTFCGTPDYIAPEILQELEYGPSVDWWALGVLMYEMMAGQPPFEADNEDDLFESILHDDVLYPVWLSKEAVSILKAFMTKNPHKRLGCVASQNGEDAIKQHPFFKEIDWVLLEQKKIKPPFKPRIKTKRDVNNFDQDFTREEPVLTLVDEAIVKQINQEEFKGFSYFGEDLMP
# Protocol: Protein Kinase C Assay. Recombinant PKC (1 ng of alpha or epsilon isoform) was mixed with the BR-101 (DCP-LA) in the presence of 10 micromolar histones, 5 mM CaCl2, 1.2 μg/μl phosphatidyl-L-serine, 0.18 μg/μl 1,2-dioctanoyl-sn-glycerol (DAG), 10 mM MgCl2, 20 mM HEPES (pH 7.4), 0.8 mM EDTA, 4 mM EGTA, 4% glycerol, 8 μg/ml aprotinin, 8 μg/ml leupeptin, and 2 mM benzamidine. 0.5 micro Ci [γ32P]ATP was added. The incubation mixture was incubated for 15 min at 37 degrees in a total volume of 10 microliters. The reaction was stopped by spotting the reaction mixtures on 1×2 cm strips of cellulose phosphate paper (Whatman P81) and immediately washing twice for 1 hr in 0.5% H3PO4. The cellulose phosphate strips were counted in a scintillation counter. In some experiments, phosphatidylserine, diacylglycerol, and/or calcium were removed.
# other PKC isoforms = test: PKC isozyme specificity: other PKC isoforms; format: biochemical; conditions: 10 μM; data not shown
# Protocol: Protein Kinase C Assay. Rat hippocampal cells were cultured and scraped in 0.2 ml homogenization buffer (20 mM Tris-HCl, pH 7.4, 50 mM NaF, 1 μg/ml leupeptin, and 0.1 mM PMSF) and homogenized by sonication in a Marsonix micro-probe sonicator (5 sec, 10 W). To measure PKC, 10 μl of cell homogenate or purified PKC isozyme (purchased from Calbiochem) was incubated for 15 min at 37° C. in the presence of 10 μM histones, 4.89 mM CaCl2, 1.2 μg/μl phosphatidyl-L-serine, 0.18 μg/μl 1,2-dioctanoyl-sn-glycerol, 10 mM MgCl2, 20 mM HEPES (pH 7.4), 0.8 mM EDTA, 4 mM EGTA, 4% glycerol, 8 μg/ml aprotinin, 8 μg/ml leupeptin, and 2 mM benzamidine. 0.5 μCi [γ-32P]ATP was added and 32P-phosphoprotein formation was measured by adsorption onto phosphocellulose as described previously. Nelson and Alkon, J. Neurochemistry. 1995; 65: 2350-57. For measurements of activation by BR-101 (DCP-LA) and similar compounds, PKC activity was measured in the absence of diacylglycerol and phosphatidylserine, as described by Kanno et al., and PKC δ, ε, η, and were measured in the absence of added EGTA and CaCl2, as described by Kanno et al., J. Lipid Res. 2006; 47: 1146-50. […]
# To determine their PKC isozyme specificity, the new compounds were preincubated with purified PKC for five minutes and the PKC activity was measured radiometrically.
compound,measurement,setting,value
"CCCCCC1CC1CC1CC1CCCCCCCC(=O)O (centres unmarked) [BR-101, 8-[2-(2-pentyl-cyclopropylmethyl)-cyclopropyl]-octanoic acid]",activation of PKCε,PKCε,2.75 fold
same,effects on the other PKC isoforms,other PKC isoforms,relatively small effects
